In patent US20220184028A1, “TREATMENT OF AMYOTROPHIC LATERAL SCLEROSIS USING PKC ACTIVATORS” (Synaptogenix, Inc., priority 2020, published 2022):

Assay: Blood-brain-barrier crossing, brain and plasma levels in mice
Assay type: in vivo
Conditions: intravenous
Experimental: Further evaluation may be performed on bryostatin or other PKC activating compound crossing the blood-brain-barrier (BBB) and the steady state levels of bryostatin or other PKC activating compound in the brain and plasma of mice.
In contrast, plasma concentrations of bryostatin or other PKC activating compound may be greater when the drug is administered as a single injection for three consecutive weeks. Blood plasma concentrations of bryostatin or other PKC activating compound may be less in mice receiving a 25 μg/m^2 dose as a “1 on/1 off” or a “2 on/1 off” administration. Without being bound to a specific theory, it may be hypothesized that the intermittent dosing regimen facilitates the transport of bryostatin or other PKC activating compound across the BBB.

## CCC/C=C/C=C/C(=O)O[C@H]1/C(=C/C(=O)OC)C[C@H]2C[C@H]([C@@H](C)O)OC(=O)C[C@H](O)C[C@@H]3C[C@H](OC(C)=O)C(C)(C)[C@](O)(C[C@@H]4C/C(=C/C(=O)OC)C[C@H](/C=C/C(C)(C)[C@]1(O)O2)O4)O3 [Bryostatin-1]
  crossing the blood-brain-barrier: crosses the BBB
